Molecular target: T1, RIPK1 (Homo sapiens, UniProt Q13546)
T1 construct: intracellular RIPK1 and its phosphorylation during the process of inducing programmed necrosis of HT29 cells; endogenous in cells; host or cells: HT29 cells
T1 sequence (Q13546 1-671): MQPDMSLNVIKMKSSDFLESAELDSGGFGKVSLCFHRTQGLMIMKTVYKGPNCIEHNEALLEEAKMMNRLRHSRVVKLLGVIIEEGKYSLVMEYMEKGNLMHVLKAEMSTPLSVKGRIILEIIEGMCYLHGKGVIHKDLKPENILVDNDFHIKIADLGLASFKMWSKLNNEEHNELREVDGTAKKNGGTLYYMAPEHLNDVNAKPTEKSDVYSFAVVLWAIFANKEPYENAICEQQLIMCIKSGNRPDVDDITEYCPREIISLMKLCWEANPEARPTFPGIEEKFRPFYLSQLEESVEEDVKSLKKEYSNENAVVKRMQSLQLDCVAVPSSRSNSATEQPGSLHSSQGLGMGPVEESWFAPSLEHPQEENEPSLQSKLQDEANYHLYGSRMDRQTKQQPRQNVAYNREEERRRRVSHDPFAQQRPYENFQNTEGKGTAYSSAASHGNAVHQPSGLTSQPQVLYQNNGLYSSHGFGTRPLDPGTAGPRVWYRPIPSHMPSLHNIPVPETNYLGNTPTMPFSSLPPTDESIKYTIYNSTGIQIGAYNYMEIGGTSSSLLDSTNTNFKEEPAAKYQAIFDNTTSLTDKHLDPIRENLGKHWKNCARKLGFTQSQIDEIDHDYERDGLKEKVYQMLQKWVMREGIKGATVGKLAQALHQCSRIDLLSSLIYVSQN
Assay: Western Blot detection of inhibition of RIPK1 phosphorylation in HT29 cells
Format: cell-based
Settings: Z-VAD-FMK/TNF-α/AT-406 induction, 7 hours
Protocol: In this assay, Western blot was used to detect the effect of the test compound on intracellular RIPK1 and its phosphorylation during the process of inducing programmed necrosis of HT29 cells to verify the inhibitory effect of the compound on RIPK1 phosphorylation.
a) HT29 cells in good condition were collected, resuspended in McCoy's 5A complete medium and counted. The cells were seeded in a 12-well plate at a cell density of 1×10 6/1 mL/well, and placed in a 37° C. cell culture incubator overnight.
b) Z-VAD-FMK (at final concentration of 20 μM) was added to the above 12-well plate. After 30 minutes, the inducer (where the final concentration of TNF-α was 20 ng/mL, and the final concentration of AT-406 was 100 nM), and the test compound of different concentrations was then added, and incubated in a cell incubator at 37° C. for 7 hours.
c) Preparation of complete lysate: A tube of aliquoted RIPA lysate was thawed, and then phosphatase inhibitor and Roche protease inhibitor were added respectively (phosphatase inhibitor: RIPA=1:100; Roche protease inhibitor: RIPA=4:100); the mixture was placed on ice for later use; […]
g) The BCA kit was used for detection and the protein concentration was calculated; […]
7. […] The membrane was cut according to the molecular weight of the protein to be detected based on the marker band indication. […]

effect on RIPK1 total protein: no obvious inhibitory effect on RIPK1
Structure (SMILES): O=C(C1CCN(c2cc(-c3cc(OCCCO)ccc3F)ccn2)CC1)N1N=CC[C@H]1c1cc(F)cc(F)c1 (racemic) [Example 40]
inhibition of RIPK1 phosphorylation (Western Blot, ratio to total RIPK1): directly inhibits the phosphorylation activity of RIPK1 and shows a dose-dependent relationship

From patent publication US20250074892A1, “CARBONYL BRIDGED HETEROCYCLIC COMPOUND, AND COMPOSITION AND APPLICATION THEREOF” (BEIJING SCITECH-MQ PHARMACEUTICALS LIMITED, priority 2022, published 2025)
